Test [1] deals with endogenous adrenergic receptors. Kind of test: Isoproterenol saturating control in the cAMP/CNGCmut calcium influx assay in HEK293 cells. It is filed as cell-based. Particulars: 10 µM, applied for 5-min. As for the experimental part: Calcium imaging was performed as described previously. HEK293 cells were incubated (30 min/37 °C) in a DMEM containing 6–8 µM Fluo-4/AM (Invitrogen) or Fluo-2/AM (TefLabs) containing 0.04% Pluronic F127. Activity of cells expressing untagged ORs from the bicistronic pTR plasmid was reported by expressed GCaMP3. Odorant solutions were applied sequentially to the cells for 5 s with a 3 min interval between each application to allow recovery from desensitization resulting from previous application of odorants. In the case of prolonged 10-min stimulation, the cells were allowed to recover for at least 10 min before adding a binary mix or isoproterenol alone, activating endogenous production of cAMP. Cells growing either on a 35-mm plastic dish or on a round poly-L-lysine coated cover glass were transferred to the stage of an inverted microscope (Axiovert 200, Zeiss) equipped with a 10x/0.5NA Fluar objective. Odorants were applied to the cells as a 5-s long pulse using a computer-controlled fast perfusion system (RSC-200, BioLogic, France) ensuring precise delivery of the stimulus with a minimal time lag. The perfusion system was controlled by Clampex 9.2 or 10.2 software (Molecular Devices). In some experiments, cells were pre-incubated with a putative antagonist for 30-s before applying a 5-s pulse of agonist. […]

In test [2] the target is T1, mouse Olfr73 (Mus musculus, UniProt Q920P2).
T1 sequence (Q920P2 1-313): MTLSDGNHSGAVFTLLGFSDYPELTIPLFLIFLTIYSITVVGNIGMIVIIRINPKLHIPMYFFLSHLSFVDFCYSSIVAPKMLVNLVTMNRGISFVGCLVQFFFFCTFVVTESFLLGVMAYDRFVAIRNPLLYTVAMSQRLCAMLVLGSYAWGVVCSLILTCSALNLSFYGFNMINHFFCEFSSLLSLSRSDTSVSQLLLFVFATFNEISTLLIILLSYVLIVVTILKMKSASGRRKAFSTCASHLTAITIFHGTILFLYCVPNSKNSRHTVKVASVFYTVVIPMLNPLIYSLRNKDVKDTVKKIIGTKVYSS
Kind of test: GCaMP3 calcium imaging of mouse OSNs ectopically expressing Olfr73 (rAAV2/5), 5-s odorant pulse. It is filed as cell-based. As to conditions: 5-s pulse.

The target of test [3] is T1, mouse Olfr73. Description: GCaMP3 calcium imaging of rat OSNs ectopically expressing Olfr73 (rAAV2/5), 5-s odorant pulse. It is filed as cell-based. Particulars: 5-s pulse.
The target in test [4] is T1, mouse Olfr73. Set-up: method as in PMID 25149566. As to conditions: starred cells, previously published in vitro work under the same conditions ref 25; cited from earlier work.
For test [5], the target named is T1, mouse Olfr73. Set-up: method as in PMID 25149566. As to conditions: starred cells, previously published in vitro work under the same conditions ref 25; cited from earlier work. The source holds these as a separate data set.
Test [6] addresses T2, Olfr599 (Mus musculus, UniProt Q8VG01). Kind of test: Calcium imaging of HEK293 cells expressing Olfr599. It is filed as cell-based. As for the experimental part: Heterologous expression of mouse ORs was based on the previously published method. HEK293 (ATCC CRL-1537) or HEK293T (ATCC CRL-3216) cells were grown in a high glucose […] (DMEM) supplemented with 10% FBS, penicillin and streptomycin, and 2 mM L-glutamine and maintained at 37 °C (5% CO2). A rhodopsin-tagged mouse olfactory receptor Olfr73 and Olfr599 (provided by Dr. Matsunami, Duke University) was co-expressed with RTP1s, a short version of the Receptor Transporting Protein 1 ensuring proper surface trafficking of the receptor (provided by Dr. Touhara, University of Tokyo). To reconstitute different G-protein coupled signaling pathways, one of the three G-proteins was co-expressed along with the OR and RTP1s, promiscuous mouse Gα15 (Thermo Scientific Open Biosystems), heterotrimeric Gαq11/ß1/γ13, both coupled to endogenous PLC/calcium release, and human Gαolf (Missouri S&T cDNA Resource Center). To assay activity-dependent accumulation of cAMP generated by activation of the Gs/Golf pathway, the cells were additionally co-transfected with a mutated A2 subunit of the rat olfactory cyclic nucleotide gated channel (CNGCmut). Two mutations C460W and E583M ensured high sensitivity and selectivity of the channel to cAMP (a gift from Dr. Rich, University of South Alabama). Transfections were performed using Calfectin (SignaGen). […]

The target in test [7] is T2, Olfr599. Description: GCaMP3 calcium imaging of mouse OSNs ectopically expressing Olfr599 (rAAV2/5). It is filed as cell-based. As to conditions: each at 100 µM, 5-s pulse. Here is the method: Animals 4–6 weeks of age were used for experiments 7–21 days post-inoculation with rAAV2/5 encoding OR-furin2A-GCaMP3. Calcium imaging was performed as detailed previously. Tissue was prepared and mounted with the apical surface facing up. The chamber was transferred to the stage of an upright microscope (Zeiss Axioskop-2F) equipped with a 40×/0.75NA long distance water-immersion objective lens. Experimental solutions were applied for a duration of 5 s directly to the field of view through a 100 µm diameter needle made of fused silica and connected to a 9-channel Teflon manifold. Solution application was controlled by electronic valves (VC-6, Warner Instruments). The calcium response is presented as an increase of GCaMP3 fluorescence originating from the knob and underlying dendrite. The tissue was illuminated using a standard eGFP filter cube BP490 nm/ 535 nm (Omega Optical, USA) and the emitted light was collected at 530 nm (BP 530/20 nm, Omega Optical, USA) by a 12-bit cooled CCD camera (ORCA R2, Hamamatsu, Japan). […] Before processing, fluorescence intensity was corrected for the background. Each knob was assigned a region of interest (ROI) and changes in fluorescence intensity within each ROI were analyzed and expressed as the peak fractional change in fluorescent light intensity (F-Fo)/Fo where Fo is the baseline fluorescence before application of experimental solutions.

T2 sequence (Q8VG01 entry or part of it): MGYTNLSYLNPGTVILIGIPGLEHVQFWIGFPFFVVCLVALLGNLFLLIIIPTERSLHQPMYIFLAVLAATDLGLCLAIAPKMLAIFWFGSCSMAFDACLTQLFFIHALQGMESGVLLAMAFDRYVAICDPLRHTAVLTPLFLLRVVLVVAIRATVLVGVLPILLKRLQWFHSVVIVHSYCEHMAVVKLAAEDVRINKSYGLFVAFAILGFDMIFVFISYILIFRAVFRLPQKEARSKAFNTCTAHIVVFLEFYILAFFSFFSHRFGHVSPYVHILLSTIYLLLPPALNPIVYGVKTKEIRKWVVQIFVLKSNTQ

With `CC(C)NCC(O)c1ccc(O)c(O)c1` (stereo not shown) [Isoproterenol], the cAMP-dependent response entry in test [1] is reported as “robust sustained response”.

Regarding `C=C(C)[C@@H]1CCC2=CC(=O)C[C@@H](C)[C@]2(C)C1` [Nootkatone, nootkatone], in test [2] (strong agonist 100 µM, putative antagonist 1 mM, single or as pair), the “Agonism/antagonism, OSN Ca2+ Mouse” value is “Agonist”. The “Response relative to the response to eugenol” value in test [2] (ligand 1 mM, Olfr73-OSNs) worked out at 50%. The “Response to ligand applied alone” value is given as “weak agonist” in test [2] (mouse Olfr73-OSNs) and “lower than that to eugenol” in test [3] (rat Olfr73-OSNs). Moreover, the “Agonism/antagonism, OSN Ca2+ Rat” value in test [3] (strong agonist 100 µM, putative antagonist 1 mM) is “Agonist”. Moreover, in test [4], the “Agonism/antagonism, HEK293 short odor Ca2+ G15” value is listed as “Inactive*”. Besides, in test [5], the “Agonism/antagonism, HEK293 short odor Ca2+ Gs/olf” value is “Inactive*”.

With `CCCCCCCC(=O)O` [Octanoic acid], the “Response to ligand applied alone” value is listed as “robust activation” in test [6] (HEK293, Olfr599 with Gαq11/ß1/γ13, 100 µM) and “evoked reliable neuronal responses” in test [7]. The EC50 in test [6] (HEK293 cells, Olfr599) came to 70 µM.

As to isoeugenol, the “Agonism/antagonism, HEK293 short odor Ca2+ G15” value in test [4] was “Agonist*”. For the same molecule, the “Agonism/antagonism, HEK293 short odor Ca2+ Gs/olf” value in test [5] is recorded as “Agonist*”.

Source of the values: paper PMC8085013, “Mixture interactions at mammalian olfactory receptors are dependent on the cellular environment” (Scientific Reports, 2021).
